Assay results taken from BigSolDB 2.1.

Nc1cccc(C(=O)O)c1O
solubility (mole fraction) (in n-propanol, 293.2 K): 0.000339 | solubility (mole fraction) (in n-propanol, 298.2 K): 0.00046 | solubility (mole fraction) (in n-propanol, 303.2 K): 0.000522 | solubility (mole fraction) (in n-propanol, 308.2 K): 0.00058 | solubility (mole fraction) (in n-propanol, 313.2 K): 0.000681 | solubility (mole fraction) (in water, 293.2 K): 0.00012 | solubility (mole fraction) (in water, 298.2 K): 0.000122 | solubility (mole fraction) (in water, 303.2 K): 0.000139 | solubility (mole fraction) (in water, 308.2 K): 0.000148 | solubility (mole fraction) (in water, 313.2 K): 0.000165
